Data on 1 compound can be found in patent US11998549B2, “Methods of treating a vascular leakage-associated disease or disorder” (UNITY HEALTH TORONTO, priority 2019, dated 2024).

For assay [1], the target named is T1, active human EHMT2/G9a protein fragment (Homo sapiens, UniProt Q96KQ7).
T1 construct: active human EHMT2/G9a protein fragment (ab80323); purchased ab80323
T1 sequence (Q96KQ7 785-1210 limits assumed): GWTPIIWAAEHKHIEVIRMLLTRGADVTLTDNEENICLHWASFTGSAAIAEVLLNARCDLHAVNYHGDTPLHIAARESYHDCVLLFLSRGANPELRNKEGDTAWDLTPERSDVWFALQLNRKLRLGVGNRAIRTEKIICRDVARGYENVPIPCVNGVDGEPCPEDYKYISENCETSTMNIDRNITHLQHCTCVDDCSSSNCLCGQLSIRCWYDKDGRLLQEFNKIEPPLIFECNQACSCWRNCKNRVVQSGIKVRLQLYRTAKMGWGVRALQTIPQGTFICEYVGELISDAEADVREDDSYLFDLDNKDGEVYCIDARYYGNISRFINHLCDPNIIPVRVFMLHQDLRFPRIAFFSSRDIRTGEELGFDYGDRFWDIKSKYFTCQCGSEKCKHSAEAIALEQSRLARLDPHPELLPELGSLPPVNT
As to the kind of experiment: G9a inhibitor in vitro histone methyltransferase assay. The format is biochemical. The source says: The commercially available Histone H3 (K9) Methyltransferase Activity Quantification Assay Kit (ab113453) was used for this assay and a modified protocol was adopted. Briefly, the histone substrate is stably captured on the strip wells. Uninhibited G9a methyltransferase (active human EHMT2/G9a protein fragment (ab80323)) will transfer a methyl group to histone H3 substrate from Adomet to methylate the substrate at lysine 9. The methylated histone H3K9 can be recognized with a high-affinity antibody. The ratio or amount of methylated H3K9, which is directly proportional to enzyme activity, can be quantified through HRP-conjugated secondary antibody color development system. In the presence of inhibitors of G9a methyltransferase, this reaction will be inhibited. […] The color should change to yellow and absorbance can be read on a microplate reader at 450 nm within 2-15 minutes.
G9a activity or inhibition was calculated as follows: plot OD value versus amount of G9a Standard and determine the slope. […]

For assay [2], the system named is human umbilical vein endothelial cells (HUVECs). Briefly: FITC dextran leakage assay in HUVEC monolayer. In kind it is cell-based. To be noted: HUVEC on transwell, LPS 1 μg/ml + UNC0642 2.5 nM. The protocol:
To determine the functional significance of G9a inhibition in human cells, solute permeability and electrical resistance across a confluent HUVEC monolayer was assessed. For both experiments, HUVEC were seeded at 1×10^6 cells/ml on Matrigel™ coated 3-μm pore size transwell inserts in 24-well plates from BD Discovery Labware™ (catalog number 354575) and grown to confluency. The cells were then treated with either the vehicle, LPS (1 μg/ml) or LPS (1 μg/ml)+UNC0642 (2.5 nM).
Assessment of Paracellular Permeability: Dextran sulfate-FITC (3 kD, Invitrogen™ Molecular Probes catalog number D-3306) was added to the lower chamber to a final concentration of 10 μg/ml. Simultaneously, the different treatment conditions mentioned above were added to the lower chamber. FITC fluorescence was measured at different time intervals (0 h, 1.5 h, 2.5 h, 24 h) in samples taken from the top chamber as a measure of paracellular dextran leak. […] (FIG. 11, Panel A)

In assay [3] the test system is LPS-induced vascular leakage. As to the kind of experiment: Vascular leakage (leaked red blood cells in tailfin) in LPS-treated zebrafish larvae. In kind it is in vivo. The method, then: An LPS induced zebrafish sepsis model which mimics the hallmarks of human sepsis was developed (Philip et al., 2017). Zebrafish show varied susceptibility and responsiveness to LPS from different bacterial strains. Exposure of zebrafish larvae at 3 days post-fertilization (dpf) to two types of LPS (LPS from Escherichia coli 0111:B4 (Sigma) at 100 μg/ml for 5-6 hrs; or LPS from Salmonella at 27 μg/ml for 24 hrs) were both effective in inducing tail fin swelling, increased ROS production, increased vascular leakage and increased mortality.
3 dpf Tg (flk1:GFP; gata-1:Dsred) double transgenic larvae were exposed to Vehicle, LPS (100 μg/ml) or LPS+1 μM UNC0642 by static immersion for 6 h at 28.5° C. to induce endothe-lial dysfunction and the resulting leakage of red blood cells. The larvae were then imaged using a Leica fluorescence microscope (Leica Microsystems, Wetzlar, Germany). Red blood cells that leaked out into the tailfin region were quantified.
3 dpf larvae were exposed to LPS by immersion technique. […] Control larvae were exposed to egg water. Survival numbers were recorded and EC50s calculated. The percentage (%) of embryos showing vascular leakage was also recorded and 1050s calculated.

Consider `COc1cc2c(NC3CCN(C(C)C)CC3)nc(N3CCC(F)(F)CC3)nc2cc1OCCCN1CCCC1` [UNC0642, 2-(4,4-Difluoropiperidin-1-yl)-6-methoxy-N-[1-(propan-2-yl)piperidin-4-yl]-7-(3-(pyrrolidin-1-yl)propoxy]quinazolin-4-amine], for which, in assay [1], the G9a methyltransferase activity entry is on record as “inhibits G9a methyltransferase activity in a dose dependent manner”. Besides, the “LPS induced vessel permeability (FITC dextran leakage)” value in assay [2] is listed as “protects against LPS induced vessel permeability”. For the same compound, the LPS-induced vascular leakage result in assay [3] (3 dpf larvae, LPS 100 μg/ml + 1 μM UNC0642, 6 h, leaked red blood cells at tail fin) is “significantly reduced”. Also, the “Rescue of sepsis-associated vascular leakage” value in assay [3] (comparison of UNC0642 and A366, zebrafish larvae, 27 μg/ml LPS, 24 h) is recorded as “able to rescue”.
